ChEMBL document CHEMBL3593242, “Crystal structures of the apo form and a complex of human LMW-PTP with a phosphonic acid provide new evidence of a secondary site potentially related to the anchorage of natural substrates” (Bioorg Med Chem, 2015)

Legend:
[1] = molecular target: T1, Low molecular weight phosphotyrosine protein phosphatase (Mus musculus, UniProt Q9D358); test: Competitive inhibition of mouse LMW-PTP expressed in Escherichia coli using pNPP substrate by Dixon plot
T1 sequence (Q9D358 whole entry): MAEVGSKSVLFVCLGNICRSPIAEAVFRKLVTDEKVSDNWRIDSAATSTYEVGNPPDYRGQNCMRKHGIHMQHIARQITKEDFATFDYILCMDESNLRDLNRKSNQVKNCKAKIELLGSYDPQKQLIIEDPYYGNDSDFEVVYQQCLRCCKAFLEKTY

[2] = Inhibition of bovine heart acid phosphatase; design: species or system Bos taurus
[3] = Inhibition of Yersinia-protein YopH using pNPP substrate
[4] = molecular target: Alkaline phosphatase, placental type (Homo sapiens, UniProt P05187); test: Inhibition of human placental alkaline phosphatase using p-nitrophenyl phosphate substrate
[5] = molecular target: T2, Ectonucleotide pyrophosphatase/phosphodiesterase family member 3 (Bos taurus, UniProt P15396); test: Inhibition of bovine intestinal 5'-nucleotide phosphodiesterase using 4-nitrophenyl phenylphosphonate substrate by spectrophotometry
T2 sequence (P15396 whole entry): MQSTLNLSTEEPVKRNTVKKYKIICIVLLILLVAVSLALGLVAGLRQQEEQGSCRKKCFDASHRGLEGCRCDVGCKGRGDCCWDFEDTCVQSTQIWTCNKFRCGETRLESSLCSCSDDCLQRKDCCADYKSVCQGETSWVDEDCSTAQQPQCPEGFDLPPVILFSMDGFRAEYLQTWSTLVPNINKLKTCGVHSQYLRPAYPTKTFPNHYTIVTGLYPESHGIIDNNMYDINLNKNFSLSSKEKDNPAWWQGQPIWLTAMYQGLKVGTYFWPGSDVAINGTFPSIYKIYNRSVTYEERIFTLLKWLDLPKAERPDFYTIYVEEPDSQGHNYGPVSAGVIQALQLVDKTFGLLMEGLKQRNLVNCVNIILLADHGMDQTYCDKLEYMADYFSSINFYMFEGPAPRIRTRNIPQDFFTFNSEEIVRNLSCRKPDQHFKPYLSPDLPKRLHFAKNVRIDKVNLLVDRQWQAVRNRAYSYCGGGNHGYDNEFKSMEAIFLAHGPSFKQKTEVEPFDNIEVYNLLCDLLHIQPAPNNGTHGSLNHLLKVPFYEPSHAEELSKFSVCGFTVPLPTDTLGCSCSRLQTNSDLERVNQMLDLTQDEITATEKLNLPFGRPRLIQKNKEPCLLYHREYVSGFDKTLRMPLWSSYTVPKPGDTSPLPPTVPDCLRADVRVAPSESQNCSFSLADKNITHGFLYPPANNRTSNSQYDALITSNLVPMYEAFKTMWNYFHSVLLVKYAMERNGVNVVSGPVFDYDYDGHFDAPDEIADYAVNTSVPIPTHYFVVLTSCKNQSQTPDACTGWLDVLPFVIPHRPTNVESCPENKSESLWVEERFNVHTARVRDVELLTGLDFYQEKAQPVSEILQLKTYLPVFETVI

[6] = molecular target: T3, Tyrosine-protein phosphatase non-receptor type 1 (Homo sapiens, UniProt P18031); test: Inhibition of PTP1B (unknown origin) using […] substrate
T3 sequence (P18031 whole entry): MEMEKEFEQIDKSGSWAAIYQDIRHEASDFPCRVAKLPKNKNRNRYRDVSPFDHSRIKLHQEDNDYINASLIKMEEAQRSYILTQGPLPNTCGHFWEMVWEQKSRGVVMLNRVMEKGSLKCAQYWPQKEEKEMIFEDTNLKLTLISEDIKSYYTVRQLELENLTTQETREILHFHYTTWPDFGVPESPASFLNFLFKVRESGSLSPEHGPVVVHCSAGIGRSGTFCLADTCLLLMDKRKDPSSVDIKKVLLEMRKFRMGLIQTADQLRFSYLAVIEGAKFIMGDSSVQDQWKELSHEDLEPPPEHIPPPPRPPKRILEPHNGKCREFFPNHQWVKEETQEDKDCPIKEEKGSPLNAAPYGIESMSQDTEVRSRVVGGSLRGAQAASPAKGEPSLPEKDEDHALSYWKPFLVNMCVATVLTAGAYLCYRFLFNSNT

Alkaline phosphatase, placental type, sequence (P05187 whole entry): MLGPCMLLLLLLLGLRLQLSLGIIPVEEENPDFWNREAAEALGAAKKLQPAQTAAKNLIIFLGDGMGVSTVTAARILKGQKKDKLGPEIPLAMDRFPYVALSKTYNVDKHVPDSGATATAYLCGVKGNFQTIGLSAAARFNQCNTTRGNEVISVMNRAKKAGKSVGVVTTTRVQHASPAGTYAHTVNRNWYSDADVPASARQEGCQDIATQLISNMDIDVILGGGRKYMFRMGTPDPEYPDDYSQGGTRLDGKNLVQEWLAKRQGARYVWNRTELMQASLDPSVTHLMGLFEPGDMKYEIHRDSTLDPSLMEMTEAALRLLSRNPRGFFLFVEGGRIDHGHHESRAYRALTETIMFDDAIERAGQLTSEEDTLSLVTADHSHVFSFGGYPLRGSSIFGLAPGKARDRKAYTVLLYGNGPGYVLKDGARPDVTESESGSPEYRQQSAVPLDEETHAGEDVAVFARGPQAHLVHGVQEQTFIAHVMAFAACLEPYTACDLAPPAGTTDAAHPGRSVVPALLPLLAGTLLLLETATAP

SMILES | Ki [1] [µM] | Ki [2] [µM] | Ki [3] [µM] | Ki [4] [µM] | Ki [5] [µM] | Ki [6] [µM]
O=[N+]([O-])c1ccc(CP(=O)(O)O)cc1 | 124 | – | – | – | – | –
O=P(O)(O)Cc1ccc(CCl)cc1 | 47 | – | – | – | – | –
O=P(O)(O)Cc1ccccc1 [BENZYLPHOSPHONIC ACID] | – | 4600 | 5000 | 580 | 1400 | 3000
